Source: patent US12419889B2, “Methods of treating chronic spontaneous urticaria using a bruton's tyrosine kinase inhibitor” (NOVARTIS AG, priority 2019, dated 2025)

What was measured:
[1] = test system: mast cell FcγRIII-mediated inflammation; experiment: Reverse passive Arthus (RPA) model, skin swelling; type: in vivo; details: mouse RPA
Protocol: The duration of the PD effect in skin after single dose was assessed in the reverse passive Arthus (RPA) model of mast cell FcγRIII—mediated inflammation. In this RPA model, a polyclonal IgG antibody is injected locally into the dermis, while the soluble antigen is given systemically by i.v. injection. In this mouse model, mast cell FcγRIII has a dominant role with only minor contributions by the complement system (Hazenbos et al. 1998, journal of immunology, 161(6), pp. 3026; Hazenbos et al., Immunity, 1996, 5(2), pp. 181; Köhl & Gessner 1999, Molecular immunology, 36(13-14), pp. 893; Sylvestre & Ravetch 1996, Immunity, 5(4), pp. 387; Sylvestre & Ravetch 1994, Science, 265(5175), pp. 1095). It has been shown that genetic BTK deficient mice are protected in the passive Arthus skin reaction (Fiedler et al. 2011, blood, 117(4), pp. 1329).
(§1) Oral treatment with compound (I) at a single dose of 3, 10, 30 and 100 mg/kg, given 2 hours prior to induction of the RPA response, reduced skin swelling in a dose-related manner. […] (FIG. 2)
In this model, the inhibition of skin swelling was maximal when compound (I) was dosed 2 hours prior to eliciting the Arthus reaction. The effect diminished gradually and reached baseline when the Arthus reaction was triggered 45 hours or later after compound (I) dosing.

[2] = test system: passive cutaneous anaphylaxis (PCA); experiment: Passive cutaneous anaphylaxis (PCA) model, Evans blue extravasation; type: in vivo; details: mouse PCA
Protocol: (§2) The effects of compound (I) on acute skin hypersensitivity were also assessed after two oral doses of compound (I) in the mouse of model of passive cutaneous anaphylaxis (PCA) (Ovary 1958). The mouse PCA model was used at a low dose of sensitizing IgE antibody to minimize complement-dependent anaphylatoxins (Schafer et al. 2013, The journal of allergy and clinical immunology, 131(2), pp. 541; Hata et al. 1998, Journal of Experimental Medicine, 187(8), pp. 1235). […] (FIG. 3). Spleen occupancy at 2.5 hours post last dose ranged from 89.1 to 99.7% (representing peak occupancy) (FIG. 4).

[3] = Safety and tolerability in healthy volunteers; type: in vivo, human
Protocol: Standard safety monitoring was used throughout all study parts. A dedicated assessment of potential skin bruising events were included. All vital signs, physical examination and subject history, ECGs, adverse events, and laboratory safety parameters (blood chemistry, hematology and urinalysis) up to 96 hours post last dose as well as PK data from the previous dose group (if available) up to 48 hours post last dose were to be reviewed in a blinded fashion for each cohort before dose escalation. Summary safety reports of reported adverse events, clinical safety laboratory parameters, QTc and heart rate were provided after completion of each dose level.
For the analysis of adverse effects, the Placebo subjects from all SAD and MAD cohorts (2 per cohort) and separated by the SAD and MAD parts were pooled into one Placebo group (n=20 for SAD and n=16 for MAD) to be compared with each single compound (I) dose group (n=6 each) and the total compound (I) group (n=60 for SAD and n=48 for MAD). There were no apparent major differences in the demographic data between placebo and the active groups both for the SAD and MAD populations.

BTK [4] = biological target: T1, BTK (Mus musculus, UniProt P35991); experiment: BTK occupancy in spleen in mouse RPA and PCA models; type: in vivo; details: mouse RPA, 5 h after dosing
T1 construct: from tissue; host or cells: mouse spleen
T1 sequence (P35991 whole entry): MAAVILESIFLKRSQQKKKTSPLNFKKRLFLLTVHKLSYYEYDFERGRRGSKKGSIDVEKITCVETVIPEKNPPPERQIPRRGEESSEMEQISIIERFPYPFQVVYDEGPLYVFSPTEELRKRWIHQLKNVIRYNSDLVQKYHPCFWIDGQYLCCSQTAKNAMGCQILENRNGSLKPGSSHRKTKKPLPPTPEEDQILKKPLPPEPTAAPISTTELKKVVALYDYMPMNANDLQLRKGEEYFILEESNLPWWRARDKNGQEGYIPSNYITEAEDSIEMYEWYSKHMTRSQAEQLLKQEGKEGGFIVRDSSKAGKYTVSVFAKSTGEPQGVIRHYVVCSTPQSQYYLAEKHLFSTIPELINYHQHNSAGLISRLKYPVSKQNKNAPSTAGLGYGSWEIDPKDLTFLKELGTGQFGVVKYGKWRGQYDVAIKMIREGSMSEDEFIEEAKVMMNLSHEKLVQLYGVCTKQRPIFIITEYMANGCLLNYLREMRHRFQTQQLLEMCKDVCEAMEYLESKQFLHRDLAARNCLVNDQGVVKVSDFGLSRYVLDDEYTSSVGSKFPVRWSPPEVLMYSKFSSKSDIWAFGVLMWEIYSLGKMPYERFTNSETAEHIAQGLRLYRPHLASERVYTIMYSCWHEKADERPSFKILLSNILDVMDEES
Protocol: (§3) The in vivo PD effects of an irreversible BTK inhibitor like compound (I) are determined by the extent and duration of covalent BTK occupancy by the inhibitor. BTK occupancy after treatment with Compound of Formula (I) (also referenced to as Compound (I)) was measured in an ex vivo immunoassay. The fraction of unoccupied BTK protein was assayed after in vitro incubation with a covalent biotinylated BTK probe, since compound (I) and the probe bind to BTK in a mutually exclusive manner. Unoccupied BTK, as well as total BTK relative protein levels were determined in lysates of selected tissues and levels of unoccupied BTK were normalized to total BTK protein levels in the same samples.
as §1, §2

BTK [5] = biological target: T2, BTK (Rattus norvegicus, UniProt Q5S255); experiment: BTK occupancy ex vivo immunoassay in rat tissues after oral dosing
T2 construct: Unoccupied BTK, as well as total BTK relative protein levels were determined in lysates of selected tissues; from tissue; host or cells: rat spleen, blood, lymph nodes, lung
T2 sequence (Q5S255 1-660): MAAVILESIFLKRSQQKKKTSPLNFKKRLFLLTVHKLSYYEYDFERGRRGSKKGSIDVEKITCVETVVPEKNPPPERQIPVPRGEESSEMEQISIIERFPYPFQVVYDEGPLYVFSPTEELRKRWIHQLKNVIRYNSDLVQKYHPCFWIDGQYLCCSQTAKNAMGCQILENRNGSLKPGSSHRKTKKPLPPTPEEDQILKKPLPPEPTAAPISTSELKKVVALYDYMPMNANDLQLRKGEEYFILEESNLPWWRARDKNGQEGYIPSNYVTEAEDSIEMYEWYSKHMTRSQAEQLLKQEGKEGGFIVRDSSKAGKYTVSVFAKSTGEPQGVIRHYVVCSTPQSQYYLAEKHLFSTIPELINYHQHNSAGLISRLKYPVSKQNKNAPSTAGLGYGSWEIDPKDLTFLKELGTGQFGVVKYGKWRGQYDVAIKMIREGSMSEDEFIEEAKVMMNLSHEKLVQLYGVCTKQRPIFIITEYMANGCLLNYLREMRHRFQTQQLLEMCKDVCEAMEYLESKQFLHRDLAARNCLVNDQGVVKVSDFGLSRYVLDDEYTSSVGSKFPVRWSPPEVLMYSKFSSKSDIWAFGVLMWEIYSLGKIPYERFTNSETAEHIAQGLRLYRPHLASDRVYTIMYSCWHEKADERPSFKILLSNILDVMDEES
Protocol: as §3
From the experimental data it was apparent that a short transient systemic exposure of compound (I) is sufficient to achieve full BTK occupancy in several tissues at low oral doses of 1-3 mg/kg. […] This very low and transient systemic exposure is consistent with the PK/PD model typical of irreversible inhibitors.
The duration of BTK occupancy was determined in rats and mice after single oral dose of compound (I) for spleen, blood, lymph nodes and lung. […] The longer persistence of BTK occupancy in blood has been reported before (Advani et al 2013, J Clin Onc; 31(1):88-94).

[6] = test system: allergen response (wheal size); experiment: Skin prick test (SPT) in healthy atopic subjects; type: in vivo, human; details: 10 mg q.d.
Protocol: The ability of compound (I) to inhibit a defined allergen response has been evaluated by means of the skin prick test (SPT) in healthy atopic subjects in the MAD study part of the first in human study. SPT was performed prior to dosing (at screening, baseline and pre-dose on Day 1) and at different time points after the first dose (Day 1) and after 11 days of once daily dosing (Day 12).

## C=CC(=O)N(C)CCOc1c(N)ncnc1-c1cc(F)cc(NC(=O)c2ccc(C3CC3)cc2F)c1C [Compound (I), N-(3-(6-Amino-5-(2-(N-methylacrylamido)ethoxy)pyrimidin-4-yl)-5-fluoro-2-methylphenyl)-4-cyclopropyl-2-fluorobenzamide]
[1]; single dose
  time between dosing and Arthus trigger at which the effect reached baseline: ≥ 45 h
[1]; single oral dose 3 mg/kg 2 hours prior to induction
  inhibition of skin swelling: 22.9 % inhibition
[1]; single oral dose 10 mg/kg 2 hours prior to induction
  inhibition of skin swelling: 29.2 % inhibition
[1]; single oral dose 30 mg/kg 2 hours prior to induction
  inhibition of skin swelling: 73.0 % inhibition
[1]; single oral dose 100 mg/kg 2 hours prior to induction
  inhibition of skin swelling: 61.2 % inhibition
[2]; two oral doses of 3 mg/kg 14 and 2 hours before challenge
  inhibition of skin edema (Evans blue extravasation): 60.7%
[2]; two oral doses of 10 mg/kg 14 and 2 hours before challenge
  inhibition of skin edema (Evans blue extravasation): 66.9%
[2]; two oral doses of 30 mg/kg 14 and 2 hours before challenge
  inhibition of skin edema (Evans blue extravasation): 69.2%
[2]; two oral doses of 100 mg/kg 14 and 2 hours before challenge
  inhibition of skin edema (Evans blue extravasation): 87.4%
[3]; 0.5 mg to 600 mg
  serious or severe adverse events related to intake: no serious or severe adverse event
[3]; 0.5 mg to 600 mg, single dose or up to 18 days once or twice daily
  tolerability: well tolerated
[3]; dosing up to 600 mg
  safety assessment of the FIH study: does not reveal significant safety concerns
BTK [4]; 3 mg/kg
  receptor occupancy at 3 mg/kg: 68.1%
BTK [4]; 10 mg/kg
  receptor occupancy at 10 mg/kg: 82.1%
BTK [4]; 30 mg/kg
  receptor occupancy at 30 mg/kg: 91.3%
BTK [4]; 100 mg/kg
  receptor occupancy at 100 mg/kg: 99.3%
BTK [5]; female rats, single oral dose 3 mg/kg
  spleen BTK occupancy: full
BTK [5]; rat spleen, single oral dose, estimated
  BTK occupancy half-life in spleen: approximately 5 hours
BTK [5]; rats, single oral dose
  BTK occupancy half-life in blood: approximately 87 hours
[6]
  inhibition of wheal size in SPT: minimal inhibition
